Reference: patent publication US8546608B2, “Proteasome inhibitors and methods of using the same” (Cephalon, Inc., priority 2003, dated 2013)
Counter-ions that a name gives are not always drawn.

Assays:
[1] = target: T1, proteasome in Molt-4 cells (human leukemia) (Homo sapiens, UniProt P20618+P28074); type: cell-based; conditions: assay of Example E, inhibition of MOLT4; read-out: MOLT4 (EC50)
T1 sequence (P28074 60-263): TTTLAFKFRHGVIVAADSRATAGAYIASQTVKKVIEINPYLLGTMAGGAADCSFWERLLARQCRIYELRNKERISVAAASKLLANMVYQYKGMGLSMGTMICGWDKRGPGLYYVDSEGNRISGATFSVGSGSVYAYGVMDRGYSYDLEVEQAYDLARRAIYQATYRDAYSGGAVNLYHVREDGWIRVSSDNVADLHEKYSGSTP
T1 sequence (P20618 29-241): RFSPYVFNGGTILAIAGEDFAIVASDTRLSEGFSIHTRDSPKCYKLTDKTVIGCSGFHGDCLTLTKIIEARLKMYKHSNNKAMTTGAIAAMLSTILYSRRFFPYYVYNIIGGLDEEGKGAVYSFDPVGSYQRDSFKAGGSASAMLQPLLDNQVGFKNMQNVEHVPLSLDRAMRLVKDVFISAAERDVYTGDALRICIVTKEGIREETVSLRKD
How it was run: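 Intact Molt-4 cells (6×10^6 cells/mL) in HEPES-buffered saline were preincubated with inhibitor 15 min at 37 °C, then given cell-permeable MeOSuc-FLF-AFC at 25 μM final.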

[2] = target: T2, 20S Human Erythrocyte Proteasome (HEP) (Homo sapiens, UniProt P20618+P28074); experiment: Chymotrypsin-like activity of 20S Human Erythrocyte Proteasome (HEP), IC50 determination; type: biochemical; conditions: assay of Example C, inhibition of HEP
T2 construct: 20S Human Erythrocyte Proteasome (HEP), purchased from Immatics Biotechnologies Inc; purchased Immatics Biotechnologies Inc., Tübingen, Germany; host or cells: human erythrocytes (natural source)
How it was run: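 20S proteasome at 0.2 μg/mL (about 0.6 nM catalytic sites) in 20 mM Tris with 0.04% SDS, preincubated 15 min at 37° C with inhibitor before Suc-LLVY-AMC (100 μM final). AMC fluorescence read in the linear range; triplicates, IC50 from concentration series.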

| SMILES | melting point | EC50 [1] | IC50 [2] |
| --- | --- | --- | --- |
| CCCCc1ccc(C(=O)N[C@@H](CNC(=O)c2ccc(-n3cncn3)cc2)C(=O)N[C@@H](CC(C)C)B(O)O)cc1 (as salt: hydrochloride) [E.5.40, Boronic acid, [(1R)-1-[[(2S)-3-(4-(1H-1,2,4-triazol-1-yl)benzoylamide)]-2-[(4-butylbenzoyl)amino]-1H-oxopropyl]amino]-3-methylbutyl] hydrochloride] | 192 to 195 °C |  |  |
| CCCCc1ccc(C(=O)N[C@@H](CNC(=O)C2CCN(S(C)(=O)=O)CC2)C(=O)N[C@@H](CC(C)C)B2O[C@@H]3C[C@@H]4C[C@@H](C4(C)C)[C@]3(C)O2)cc1 [D.24.36, 4-butylbenzamide, N-[(1S)-1-[[[(1R)-1-[(3aS,aS,6S,7aR)-hexahydro-3a,5,5-trimethyl-4,6-methano-1,3,2-benzodioxaborol-2-yl-]-3-methylbutyl]amino]carbonyl]-2-(1-methanesulfonyl-piperidine-4-carbonylamino)ethyl]-] | 170 to 172 °C |  |  |
| CC(C)C[C@H](NC(=O)[C@@H](NC(=O)[C@H](CC(C)C)NC(=O)OCc1ccccc1)[C@@H](C)O)B1O[C@@H]2C[C@@H]3C[C@@H](C3(C)C)[C@]2(C)O1 [D.8.1, (2S)-2-[(Benzyloxycarbonyl)amino]-4-methylpentanamide, N-[(1S,2R)-1-[[[(1R)-1-[(3aS,4S,6S,7aR)-hexahydro-3a,5,5-trimethyl-4,6-methano-1,3,2-benzodioxaborol-2-yl]-3-methylbutyl]amino]carbonyl]-2-hydroxypropyl]-] | 38 to 40 °C |  |  |
| CCCCc1ccc(C(=O)N[C@@H](CNS(=O)(=O)c2cn(C)cn2)C(=O)N[C@@H](CC(C)C)B2O[C@@H]3C[C@@H]4C[C@@H](C4(C)C)[C@]3(C)O2)cc1 [D.24.23, 4-butylbenzamide, N-[(1S)-1-[[[(1R)-1-[(3aS,aS,6S,7aR)-hexahydro-3a,5,5-trimethyl-4,6-methano-1,3,2-benzodioxaborol-2-yl-]-3-methylbulyl]amino]carbonyl]-2-[(1-methyl-1H-imidazole-4-)sulfonylamino]ethyl]-] | 69 to 71 °C |  |  |
| CC(C)C[C@H](NC(=O)[C@H](CNC(=O)c1ccc(-c2ccccc2)cc1)NC(=O)c1ccc(Oc2ccccc2)cc1)B1O[C@@H]2C[C@@H]3C[C@@H](C3(C)C)[C@]2(C)O1 [D.24.31, 4-phenoxybenzamide, N-[(1S)-1-[[[(1R)-1-[(3aS,4S,6S,7aR)-hexahydro-3a,5,5-trimethyl-4,6-methano-1,3,2-benzodioxaborol-2-yl]-3-methylbutyl]amino]carbonyl]-2-(4-phenylbenzoylamino)ethyl]-] | 150 to 152 °C |  |  |
| Cc1cc(C(=O)NC[C@H](NC(=O)c2ccc(Oc3ccccc3)cc2)C(=O)N[C@@H](CC(C)C)B2O[C@@H]3C[C@@H]4C[C@@H](C4(C)C)[C@]3(C)O2)n(C)n1 [D.24.30, 4-phenoxybenzamide, N-[(1S)-1-[[[(1R)-1-[(3aS,aS,6S,7aR)-hexahydro-3a,5,5-trimethyl-4,6-methano-1,3,2-benzodioxaborol-2-yl-]-3-methylbutyl]amino]carbonyl]-2-[(2,5-dimethyl-2H-pyrazole)carbonylamino]ethyl]-] | 100 to 103 °C |  |  |
| CC(C)C[C@H](NC(=O)[C@H](CNC(=O)OCc1ccccc1)NC(=O)c1ccc(Oc2ccccc2)cc1)B1O[C@@H]2C[C@@H]3C[C@@H](C3(C)C)[C@]2(C)O1 [D.16.9] | 100 to 103 °C |  |  |
| CCCCc1ccc(C(=O)N[C@@H](CNC(=O)C#Cc2ccccc2)C(=O)N[C@@H](CC(C)C)B2O[C@@H]3C[C@@H]4C[C@@H](C4(C)C)[C@]3(C)O2)cc1 [D.24.33, 4-butylbenzamide, N-[(1S)-1-[[[(1R)-1-[(3aS,4S,6S,7aR)-hexahydro-3a,5,5-trimethyl-4,6-methano-1,3,2-benzodioxaborol-2-yl]-3-methylbutyl]amino]carbonyl]-2-(3-phenylpropynoylamino)ethyl]-] | 118 to 120 °C |  |  |
| CCCCCCCCCC(=O)N[C@@H](CNC(=O)c1ccc(S(N)(=O)=O)cc1)C(=O)N[C@@H](CC(C)C)B1O[C@@H]2C[C@@H]3C[C@@H](C3(C)C)[C@]2(C)O1 [D.24.2, Decanamide, N-[(1S)-1-[[[(1R)-1-[(3aS,4S,6S,7aR)-hexahydro-3a,5,5-trimethyl-4,6-methano-1,3,2-benzodioxaborol-2-yl]-3-methylbulyl]amino]carbonyl]-2-[(4-sulfonamidophenyl)carbonyl-amido]ethyl]-] | 178 to 181 °C |  |  |
| CCCCc1ccc(C(=O)N[C@@H](CNC(=O)c2ccc(-c3ccccc3)cc2)C(=O)N[C@@H](CC(C)C)B2O[C@@H]3C[C@@H]4C[C@@H](C4(C)C)[C@]3(C)O2)cc1 [D.24.32, 4-butylbenzamide, N-[(1S)-1-[[[(1R)-1-[(3aS,4S,6S,7aR)-hexahydro-3a,5,5-trimethyl-4,6-methano-1,3,2-benzodioxaborol-2-yl]-3-methylbutyl]amino]carbonyl]-2-(4-phenylbenzoylamino)ethyl]-] | 195 to 198 °C |  |  |
| CCCCc1ccc(C(=O)N[C@@H](CNC(=O)C2CCN(S(C)(=O)=O)CC2)C(=O)N[C@@H](CC(C)C)B(O)O)cc1 [E.5.38, Boronic acid, [(1R)-1-[[(2S)-3-(1-methanesulfonylpiperidine-4-carbonylamino)-2-[(4-butylbenzoylamino)]-1-oxopropyl]amino]-3-methylbutyl]] | 170 to 173 °C |  |  |
| CCCCCCCCCC(=O)N[C@@H](CNC(C)=O)C(=O)N[C@@H](CC(C)C)B(O)O [E.5.1, Boronic acid, [(1R)-1-[[(2S)-3-(acetylamino)-2-[(decanoylamino)]-1-oxopropyl]amino]-3-methylbutyl]] |  | < 200 nM | < 10 nM |
| CCc1ccc(OCC(=O)N[C@@H](CCCNC(=N)N[N+](=O)[O-])C(=O)N[C@@H](CC(C)C)B(O)O)cc1 [E.2.55, Boronic acid, [(1R)-1-[[(2S)-5-[[imino(nitroamino)methyl]amino]-2-[[2-(4-ethylphenoxy)acetyl]amino]-1-oxopentyl]amino]-3-methylbutyl]] |  | 2000 to 10000 nM | < 10 nM |
| CC(C)C[C@H](NC(=O)[C@H](CCCNC(=N)N[N+](=O)[O-])NC(=O)CCCc1ccccc1)B(O)O [E.2.7, Boronic acid, [(1R)-1-[[(2S)-5-[[imino(nitroamino)methyl]amino]-2-[(4-phenylbutanoyl)amino]-1-oxopentyl]amino]-3-methylbutyl]] |  | 2000 to 10000 nM | < 10 nM |
| Cc1ccc(OCC(=O)N[C@@H](CCCNC(=N)N[N+](=O)[O-])C(=O)N[C@@H](CC(C)C)B2O[C@@H]3C[C@@H]4C[C@@H](C4(C)C)[C@]3(C)O2)cc1C [D.3.67, 2-(3,4-Dimethylphenoxy)acetamide,N-[(1S)-1-[[[(1R)-1-[(3aS,4S,6S,7aR)-hexahydro-3a,5,5-trimethyl-4,6-methano-1,3,2-benzodioxaborol-2-yl]-3-methylbutyl]amino]carbonyl]-4-[[imino(nitroamino)methyl]amino]butyl]] |  | < 200 nM | < 10 nM |
| CC(C)C[C@H](NC(=O)[C@H](CCCNC(=N)N[N+](=O)[O-])NC(=O)CCCCCCCCC#N)B1O[C@@H]2C[C@@H]3C[C@@H](C3(C)C)[C@]2(C)O1 [D.3.186, 9-Cyanononamide, N-[(1S)-1-[[[(1R)-1-[(3aS,4S,6S,7aR)-hexahydro-3a,5,5-trimethyl-4,6-methano-1,3,2-benzodioxaborol-2-yl]-3-methylbutyl]amino]carbonyl]-4-[[imino(nitroamino)methyl]amino]butyl]] |  | < 200 nM | < 10 nM |
| CC(C)C[C@H](NC(=O)[C@H](CCCNC(=N)N[N+](=O)[O-])NC(=O)CCCOc1ccccc1)B1O[C@@H]2C[C@@H]3C[C@@H](C3(C)C)[C@]2(C)O1 [D.3.104] |  | 200 to 2000 nM | < 10 nM |
| CC(C)C[C@H](NC(=O)[C@H](CCCNC(=N)N[N+](=O)[O-])NC(=O)C(C)c1ccc(Cl)cc1)B(O)O (mixture of isomers) [E.2.76, Boronic acid, [(1R)-1-[[(2S)-5-[[imino(nitroamino)methyl]amino]-2-[[(RS)-2-(4-chlorophenyl)propanoyl]amino]-1-oxopcntyl]amino]-3-methylbutyl]] |  | 2000 to 10000 nM | < 10 nM |
| CCCCc1ccc(C(=O)N[C@@H](CNC(=O)c2cnccn2)C(=O)N[C@@H](CC(C)C)B2O[C@@H]3C[C@@H]4C[C@@H](C4(C)C)[C@]3(C)O2)cc1 [D.18, 2-S-(4-Butylbenzoylamino)-3-(2-pyrazinocarbonylamino)-N-[(1S)-1-[[(1R)-1-[(3aS,4S,6S,7aR)-hexahydro-3a,5,5-trimethyl-4,6-methano-1,3,2-benzodioxaborol-2-yl]-3-methylbutyl]amino]carbonyl]] |  | < 200 nM | < 10 nM |
| CC(C)C[C@H](NC(=O)[C@H](CCCNC(=N)N[N+](=O)[O-])NC(=O)/C=C/c1ccc2ccccc2c1)B(O)O [D.7.36, Boronic acid, [(1R)-1-[[(2S)-5-[[imino(nitroamino)methyl]amino]-2-[[(E)-3-(naphthalen-2-yl)prop-2-enoyl]amino]-1-oxopentyl]amino]-3-methylbutyl]] |  | 2000 to 10000 nM | < 10 nM |
